Patent US20240165226A1, “COMBINATION TREATMENT OF CD38-EXPRESSING TUMORS” (GENMAB A/S, priority 2006, published 2024)
Entries after “also recorded” stand apart in the source; their conditions may differ.

B1: -024: human monoclonal IgG1 anti-CD38 antibody, VL region SEQ ID No:22 and VH region SEQ ID No:27 (antibody, listed as Homo sapiens, V domains shown)
VH: EVQLVQSGAEVKKPGESLKISCKGSGYSFSNYWIGWVRQMPGKGLEWMGIIYPHDSDARYSPSFQGQVTFSADKSISTAYLQWSSLKASDTAMYYCARHVGWGSRYWYFDLWGRGTLVTVSS
VL: EIVLTQSPATLSLSPGERATLSCRASQSVSSYLAWYQQKPGQAPGLLIYDASNRASGIPARFSGSGSGTDFTLTISSLEPEDFAVYYCQQRSNWPLTFGGGTKVEIK

How the values were obtained:
[1] = biological target: T1, CD38-transfected CHO (CHO-CD38) cells (Homo sapiens, UniProt P28907); assay: Binding to CD38-transfected CHO cells by flow cytometry; details: for binding to CHO-CD38 cells: in words
T1 construct: expressed in transfected cells; host or cells: CHO cells
Description: After harvesting and counting, Daudi-luc cells, CHO cells transfected with CD38 and control CHO cells were resuspended in PBS (1×10^6 cells/ml). Then, cells were put in 96-well V-bottom plates (100 μl/well) and washed twice in PBS-BSA (PBS supplemented with 0.1% BSA and 0.02% Na-azide). Thereafter, 50 μl antibody solution in PBS-BSA was added to the cells (4° C., 30 min). After washing three times in PBS-BSA, 50 μl (1:400 dilution) of rabbit anti-human IgG-FITC in PBS-BSA was added (4° C. in the dark, 30 min). Cells were washed three times and specific binding of CD38-antibodies to CHO-CD38 and Daudi-luc cells was detected by flow cytometry. HuMab-KLH (a human monoclonal antibody against KLH (keyhole limpet haemocyanin) generated by Genmab B.V., Utrecht, The Netherlands by use of the immunization protocols described elsewhere herein) was used as a control. […] No binding to control CHO cells is observed (data not shown).

fresh MM tumor cells = assay: Binding to fresh multiple myeloma tumor cells by flow cytometry; parameters: species or system human; details: for binding to MM cells: in words
Description: Fresh MM tumor cells were obtained from Dr. Lokhorst (University Medical Center Utrecht, Utrecht, The Netherlands. Tumor cells were isolated from bone marrow of multiple myeloma patients by Ficoll (Bio Whittaker; lymphocyte separation medium, cat 17-829E) gradient centrifugation. After harvesting and counting, MM cells (100,000 cells/well) were resuspended with 25 μl FITC-labeled CD38-specific antibodies and 25 μl CD138. After incubation (4° C., 30 min), cells were washed in PBS-BSA and PE-labeled goat-anti-mouse IgG (1:200; Jackson ImmunoResearch Europe Ltd. Soham, UK) was added. After incubation (4° C., 30 min) and washing of the cells in PBS-BSA, fluorescence was measured by flow cytometry.

Daudi-luc cells = assay: Complement-dependent cytotoxicity of Daudi-luc cells; format: cell-based; details: for CDC-mediated lysis of Daudi-luc cells: in words
Description: After harvesting and counting of Daudi-luc cells, the viability of the cells should be ≥90%. After washing (PBS), cells are resuspended at 2.0×10^6 cells/ml in RPMI-B (RPMI supplemented with 1% BSA). Thereafter, cells are put in 96-well round-bottom plates at 1×10^5 cells/well (50 μl/well). Then, 50 μl antibodies is added to the wells (final concentration range between 0-100 μg/ml (three-fold dilutions in RPMI-B)). After incubation (RT, 15 min), 11 μl of pooled human serum (pool of 18 healthy donors) was added to each well (37° ° C., 45 min). Wells were resuspended once and 120 μl was transferred to FACS tubes (Greiner). Then, 10 μl propidium iodide (PI; Sigma-Aldrich Chemie B.V.) was added (10 μg/ml solution) to this suspension. Lysis was detected by flow cytometry (FACScalibur™, Becton Dickinson, San Diego, CA, USA) by measurement of the percentage of dead cells (corresponds to PI-positive cells).

CHO-CD38 cells = assay: Complement-dependent cytotoxicity of CHO-CD38 cells; format: cell-based; details: for CDC-mediated lysis of CHO-CD38 cells: in words
[2] = system: tumor cells obtained from different MM patients; assay: Complement-dependent cytotoxicity of tumor cells from MM patients; format: cell-based, human; details: in words
Daudi-luc tumor cells = assay: In vivo SCID-luciferase experiments; parameters: species or system SCID mice
Description: In this model tumor cells are transfected with firefly luciferase. Upon administration of luciferin (Molecular Probes, Leiden, The Netherlands) to the mice the labeled cells can be detected in vivo by bioluminescent imaging using a highly sensitive CCD camera, cf. Wetterwald et al., American Journal of Pathology 160(3), 1143-1153 (2002).
Daudi cells were transfected with gWIZ luciferase from Gene Therapy Systems (San Diego, CA) and cultured in RPMI with 10% FCS, Pen/Strep, Sodium Pyruvate and 1 μg/ml puromycin (Sigma). Cells were analysed for luciferase expression (expressed in RLU/1×10^5 cells) in a luminometer and for CD38 expression by FACS. 2.5×10^6 luciferase-transfected Daudi cells/mouse were injected i.v. into SCID mice. Mice were treated with -003, -005, isotype control antibody (HuMab-KLH) or rituximab (anti-CD20 antibody). Antibodies were injected intraperitoneally. Four treatment settings were used (see Table 4). In the preventive setting, antibody (100 μg/mouse) and cells were administered simultaneously. In therapeutic setting I, antibody (300 μg/mouse) was administered 7 days after administration of cells. In therapeutic setting II, antibody (10 μg/mouse) was administered 14 days after administration of cells. In therapeutic setting III, antibody (100 μg/mouse) was administered 7 days after administration of cells. For imaging, mice were anesthetized by i.p. injection of a mixture of ketamine/xylazine/atropine. Synthetic D-Luciferin (sodium salt, Molecular Probes) was given i.p. at a dose of 25 mg/ml. Mice were then placed in a light tight box and after 3 min, imaging was started using a VersArray 1300B liquid nitrogen cooled CCD detector (Roper Scientific). Photons emitted from the luciferase were counted over an exposure period of 5 min. Under illumination black and white images were made for reference. MetaVue software (Universal Imaging Corp) was used for data collection and image analysis. Statistical significance of differences between groups was established using one-way analysis of variance with a Newman-Keuls post test using GraphPad PRISM version 3.02 (Graphpad Software Inc).

PBMCs = assay: Induction of IL-6 release by PBMC; format: cell-based, human; details: 20 μg/ml antibody and 10 ng/ml LPS, 7 donors
Description: -003, -005 and -024 were tested in an assay as described in Ausiello et al., Tissue antigens 56, 538-547 (2000). Briefly, PBMCs were cultured at 1×10^6 cells/well in 48-well plates in the presence of 20 μg/ml of antibodies and 10 ng/ml LPS (Sigma-Aldrich Chemie, Zwijndrecht, The Netherlands) in 500 μl RPMI^++. After an O/N incubation at 37° C., supernatant was harvested and stored at −20° C. The IL-6 concentration was assessed by ELISA (IL-6 ELISA kit, U-CyTech Biosciences, Utrecht, The Netherlands) according to the manufacturer's instructions. Data are shown mean concentration in pg/ml (±SEM) from 7 donors.

[3] = CDC, Daudi-luc cells (n = 2), Table 10
[4] = CDC, CHO-CD38 cells (n = 2), Table 10

Row | Molecule | EC50 CHO-CD38 ([1]; binding, flow cytometry) | binding to CHO-CD38 cells [1] | EC50 MM cells (fresh MM tumor cells; binding, flow cytometry) | binding to MM cells (fresh MM tumor cells) | maximum lysis (Daudi-luc cells; CDC) | maximal lysis compared to TH3079 (Daudi-luc cells; CDC of Daudi-luciferase cells) | % Max. lysis (Daudi-luc cells; [3]) | EC50 (Daudi-luc cells; [3]) | EC50 Daudi-luc (Daudi-luc cells; CDC, Table 3) | CDC-mediated lysis of Daudi-luc cells (Daudi-luc cells) | % Max. lysis (CHO-CD38 cells; [4]) | EC50 (CHO-CD38 cells; [4]) | EC50 CD38-CHO (CHO-CD38 cells; CDC, Table 3) | CDC-mediated lysis of CHO-CD38 cells (CHO-CD38 cells) | CDC-mediated lysis of MM patient tumor cells [2] | inhibition of growth of tumor cells (Daudi-luc tumor cells; preventive setting, 100 μg/mouse, day 0, i.p.) | inhibition of growth of tumor cells (Daudi-luc tumor cells; therapeutic setting I, 300 μg/mouse, day 7, i.p.) | release of IL-6 (PBMCs) | inhibition of Daudi-luc tumor cell growth (Daudi-luc tumor cells; therapeutic setting III, 100 μg/mouse, day 7, i.p.)
1 | -005: human monoclonal IgG1 anti-CD38 antibody, VL region SEQ ID No:12 and VH region SEQ ID No:17 | 0.23 µg/mL | bind | 0.04 µg/mL | bind | ~60% | 2-3 times higher | 70.5 ± 7.78% | 0.39 ± 0.00 µg/mL | 0.33 µg/mL | lysis of Daudi-luc cells is induced | 76.5 ± 3.54% | 0.15 ± 0.007 µg/mL | 0.14 µg/mL | lysis is induced; also recorded: induce CDC-mediated lysis | CDC-mediated lysis is observed | inhibit growth of tumor cells | inhibit growth of tumor cells | does not induce release of significant IL-6 levels | 
2 | B1 |  | bind |  | bind |  |  |  |  |  | does not induce CDC |  |  |  | lysis is induced | induced lysis |  |  | did not induce release of significant IL-6 levels | clear inhibition
